Values quoted from earlier work, collected in patent US20200276090A1, “TOPICAL PRODUCTS WITH A BIPHASIC SYSTEM” (CMED AESTHETICS s.r.l., priority 2017, published 2020).
Where two headings read alike, the source gives them in different places.

Conditions: after 90 days

**Q.** With `O=C(O)C(Cl)(Cl)Cl` [TCA, trichloroacetic acid] as the compound, how does the “Degradation of TCA” value (TCA in aqueous solution alone) read?
**A.** 12.6%

**Q.** What about the “Degradation of TCA” value (in the presence of a high percentage of stabilizing agents, on average) of the same compound?
**A.** 2-3%

**Q.** And the “Degradation of TCA” value (in the presence of a low percentage of stabilizing agents, on average)?
**A.** 4-5%
